Measured values taken from paper PMC12452389, “Arginine-Derived Cationic Surfactants Containing Phenylalanine and Tryptophan: Evaluation of Antifungal Activity, Biofilm Eradication, Cytotoxicity, and Ecotoxicity” (Journal of Xenobiotics, 2025).
Converted amounts (≈) assume the structure as drawn. Read-outs that look alike come from different tables or passages of the source. Peptide text beside a SMILES is read from it. * marks the point of attachment. Lauroyl = CCCCCCCCCCCC(=O)*

Tests used:
[1] = system: Candida albicans ATCC 90028; test: MIC broth microdilution; assay type: cell-based; conditions: C. albicans; for MIC: Candida albicans, ATCC90028, read-out: MIC
Experimental: (§1) The antimicrobial activity of these compounds was assessed against selected yeast and bacterial strains: Candida albicans ATCC 90028 (CA9), Candida rugosa ATCC 10571 (CR), Candida glabrata ATCC 66032 (CG), Candida parapsilosis ATCC 22019 (CP), Candida tropicalis ATCC 7349 (CT), Candida auris ATCC 21092 (CA), and Cyberlindnera jadinii ATCC 60459. Frozen yeast stocks were plated on Sabouraud agar (SBA) and incubated at 30 °C for 24 h. Three to four colonies from each strain were then suspended in RPMI 1640 (Roswell Park Memorial Institute medium, Sigma- Aldrich, Merck, Darmstadt, Germany) to prepare bacterial dispersions of ~1.5 × 10^6 CFU/mL.
(§2) A broth microdilution assay was used to calculate MIC values. Twofold serially diluted compounds in RPMI 1640 medium (from 256 to 2 μg/mL), were dispensed (100 μL per well) into a 96-well plate. Then, 100 μL of a yeast starter culture was added to each well to reach a final inoculum of 7.5 × 10^5 CFU/mL. Wells containing only nutrient broth without the tested surfactant served as growth controls. Microbial growth was assessed by turbidity, which reflects increases in biomass and cell count. […] To confirm the obtained MICs, 20 μL of 0.015% (w/v) resazurin was dispensed to each well and incubated for 3 h at 30 °C. Metabolic activity was evidenced by a color change from blue to pink, thereby confirming the MIC value.

Candida auris ATCC 21092 = test: MIC broth microdilution; assay type: cell-based; conditions: C. auris; for MIC: Candidozyma auris, ATCC21092, read-out: MIC
Experimental: as §1, §2

[2] = system: Candida glabrata ATCC 66032; test: MIC broth microdilution; assay type: cell-based; conditions: for MIC: Nakaseomyces glabratus, read-out: MIC
Experimental: as §1, §2

[3] = system: Candida parapsilosis ATCC 22019; test: MIC broth microdilution; assay type: cell-based; conditions: C. parapsilosis; for MIC: Lodderomyces parapsilosis, ATCC22019, read-out: MIC
Experimental: as §1, §2

[4] = system: Candida rugosa ATCC 10571; test: MIC broth microdilution; assay type: cell-based; conditions: C. rugosa; for MIC: Diutina rugosa, ATCC10571, read-out: MIC
Experimental: as §1, §2

[5] = system: Candida tropicalis ATCC 7349; test: MIC broth microdilution; assay type: cell-based; conditions: C. tropicalis; for MIC: Candida tropicalis, ATCC7349, read-out: MIC
Experimental: as §1, §2

[6] = system: Cyberlindnera jadinii ATCC 60459 (C. jardinii); test: MIC broth microdilution; assay type: cell-based; conditions: for MIC: Williopsis jadinii; for Selectivity Index (HC50/MIC): C. jardini
Experimental: as §1, §2

S. aureus SH1000 [7] = system: S. aureus SH1000; parameters: method as in PMID 19889790; conditions: cited from earlier work
S. aureus SH1000 [8] = system: S. aureus SH1000; parameters: method as in PMID 19889790; conditions: cited from earlier work; remark: listed apart in the source
[9] = Surface tension, pendant drop tensiometer (cmc, γc); assay type: physicochemical; conditions: for cmc: from surface tension
Experimental: Surface tension was measured using a custom-built pendant drop tensiometer, as described in detail in reference. Briefly, a droplet of surfactant solution is formed at the tip of a straight-cut Teflon tube. The image of the droplet is captured using a webcam, and its shape is analyzed by fitting the droplet profile to the Laplace–Young equation [14], To minimize evaporation, all measurements were conducted in a saturated humid atmosphere. The use of this technique is especially well-suited for cationic surfactants because it helps to mitigate complications related to surface adsorption. Critical micelle concentration values (cmc) were determined by finding the intersection of the linear fits before and after the break in the curves.

erythrocytes = test: Hemolytic activity assay; assay type: cell-based; conditions: rabbit erythrocytes
Experimental: Fresh rabbit blood was obtained from the Animal Facility of the CID-CSIC (Research and Development Center, Spanish National Research Council, Barcelona, Spain). Sample collection was conducted in strict compliance with the bioethical guidelines established under Spanish legislation. Erythrocytes were isolated by centrifugation (3000 rpm/10 min). The supernatant was discarded, and the erythrocytes were washed three times with PBS (phosphate-buffered saline, pH 7.4) and then resuspended in PBS at a concentration of 8 × 10^9 cells/mL. Subsequently, varying volumes of a concentrated surfactant solution were added to Eppendorf tubes containing 25 μL of erythrocyte suspension. PBS was then added to bring the total volume to 1 mL. The samples were gently shaken for 10 min at room temperature and centrifuged at 10,000 rpm for 5 min. Hemolysis was evaluated by measuring the absorbance of the supernatant at 540 nm and comparing it to that of a 100% hemolysis control (erythrocytes treated with distilled water). The HC50, defined as the surfactant concentration that induces 50% hemolysis, was determined from the concentration–response curves: % hemolysis= Abstest compound/AbsBasal haemolytic activity ×100

Daphnia magna = test: Acute toxicity, immobilization test; assay type: in vivo
Experimental: Aquatic toxicity evaluation was performed using Daphnia magna following established protocols. This bioassay method employs laboratory-cultured freshwater microcrustaceans to evaluate surfactant toxicity in aquatic environments. Test organisms were utilized during their initial 24 h life stage to ensure consistency. The endpoint measurement focused on mobility impairment, specifically the loss of swimming capability after gentle stimulation lasting 15 s. Testing conditions included controlled water chemistry parameters: pH maintained at 8.0, calcium-to-magnesium ratio of 4:1, and total hardness of 250 mg/L as CaCO3. All experiments were conducted under dark conditions at 20 °C. The experimental design incorporated ten test concentrations for each surfactant compound, distributed in geometric progression. Each concentration level included 20 Daphnia specimens distributed across four replicate groups of five organisms each. Mobility assessment occurred at 48 h post-exposure, with immobilization percentages plotted against concentration using probability–logarithmic scaling.

Vibrio fischeri = test: Luminescence reduction test; assay type: cell-based; conditions: Aliivibrio fischeri, 0.25 h; Vibrio fischeri bioluminescence, 15 min of exposure; 95% confidence intervals in parentheses
Experimental: Ecotoxicological assessment of cationic surfactants was conducted using the Vibrio fischeri luminescent bioassay. This method relies on the measurement of decreased bioluminescent output from marine bacteria following contact with potentially toxic substances. Regression analysis was used to determine the concentration of the compound that caused a 50% reduction (EC50) in the amount of light emitted by the bacteria. The stated toxicity statistics given are based on the bacteria being exposed to the ionic liquid solution for 15 min at 15 °C.

[10] = parameters: method as in PMID 36559096; conditions: conductivity values; cited from earlier work
C. albicans biofilms = test: Eradication of mature biofilm, MTT method; assay type: cell-based, Candida albicans; conditions: highest concentration tested
Experimental: Candida strains were cultured in SBA at 30 °C for 24 h. Yeast cells were then suspended in RPMI 1640 broth to a final concentration of 1.5 × 10^7 CFU/mL. For mature biofilm formation, 200 μL of these suspensions was transferred to each well of a 48-well microplate and incubated at 30 °C for 24 h. After incubation, the plate was washed with phosphate-buffered saline (PBS) to remove non-adherent cells. Then, surfactant solutions at various concentrations (200 μL), prepared in RPMI 1640, were added to the wells containing the mature biofilms. Plates were incubated again at 30 °C for 24 h. Following this treatment, the RPMI medium was removed, and wells were washed twice with PBS. To assess biofilm viability, 200 μL of MTT solution (3-(4,5-dimethylthiazol-2-yl)-2,5-diphenyltetrazolium bromide) were added to each well, and plates were incubated for 4 h. After incubation, the MTT solution was removed, and 200 μL of dimethyl sulfoxide (DMSO) were added to solubilize the formazan crystals. Absorbance at 540 nm (A540) was then measured using a microplate reader. Controls without the amino acid-based surfactants were included. All experiments were made in quadruplicate, and the results were averaged to ensure accuracy and reproducibility.
In this section, we have tested the ability of these cationic surfactants to eradicate mature fungal biofilms of C. albicans and C. tropicalis. Preformed biofilms of these two strains on 48-well plates were exposed to various concentrations of the synthesized surfactants, and the biofilm was not removed after the treatment was quantified using the MTT method (3-[4,5-dimethylthiazol-2-yl]-2,5 diphenyl tetrazolium bromide) (Figure 4). This method detects viable and metabolically active cells within the biofilm by measuring the reduction in MTT to formazan by active mitochondrial enzymes.

[11] = parameters: method as in PMID 36559096; conditions: CO2 Headspace test, pass level 60%; cited from earlier work
[12] = ATCC66032, 24 h, C. glabrata, RPMI 1640, 24 h, 30 °C
[13] = ATCC66032, C. glabrata, value in parentheses
[14] = ATCC60459, C. jardinii, RPMI 1640, 24 h, 30 °C, read-out: MIC
[15] = ATCC60459, C. jardinii, value in parentheses, read-out: MIC

Compound	MIC ([1]; RPMI 1640, 24 h, 30 °C) [µg/mL]	MIC ([1]; value in parentheses) [µM]	MIC (Candida auris ATCC 21092; RPMI 1640, 24 h, 30 °C) [µg/mL]	MIC (Candida auris ATCC 21092; value in parentheses) [µM]	MIC [2, 12] [µg/mL]	MIC [2, 13] [µM]	MIC ([3]; RPMI 1640, 24 h, 30 °C) [µg/mL]	MIC ([3]; value in parentheses) [µM]	MIC ([4]; RPMI 1640, 24 h, 30 °C) [µg/mL]	MIC ([4]; value in parentheses) [µM]	MIC ([5]; RPMI 1640, 24 h, 30 °C) [µg/mL]	MIC ([5]; value in parentheses) [µM]	MIC (S. aureus SH1000 [7]) [µg/mL]	MBEC (S. aureus SH1000 [8]) [µg/mL]	other results
CCCCCCCCNC(=O)C(CCCNC(=N)N)NC(=O)C(N)Cc1ccccc1 (stereo not shown) [PANHC8]	> 256	> 512	> 256	> 512	256	512	256	512	> 256	> 512	256	512	–	–	MIC [6, 14]: > 256 µg/mL; MIC [6, 15]: > 512 µM
[H]/N=C(\N/C(=N/[H])NCCCCCCNC(=N)NC(=N)Nc1ccc(Cl)cc1)Nc1ccc(Cl)cc1 [chlorhexidine]	–	–	–	–	–	–	–	–	–	–	–	–	1 (≈ 1.98 µM)	> 256	–
CCCCCCCCCCCCCCCC[N+](C)(C)C.[Br-] [CTAB]	–	–	–	–	–	–	–	–	–	–	–	–	2	> 256	–
CCCCCCCCCCCCCCNC(=O)C(CCCNC(=N)N)NC(=O)C(N)Cc1c[nH]c2ccccc12 (stereo not shown) [TANHC14]	16	25	16	25	8	14	16	25	4	7	4	7	–	–	γc (surface tension at the cmc) [9]: 32.8 ± 1.2 mNm^−1; cmc [9]: 0.7 mM; Selectivity Index (HC50/MIC) ([1]; Table S2): 1.1; Selectivity Index (HC50/MIC) (Candida auris ATCC 21092; Table S2): 1.1; Selectivity Index (HC50/MIC) ([2]; C. glabrata, Table S2): 1.9; Selectivity Index (HC50/MIC) ([3]; Table S2): 1.1; Selectivity Index (HC50/MIC) ([4]; Table S2): 3.7; Selectivity Index (HC50/MIC) ([5]; Table S2): 3.7; Selectivity Index (HC50/MIC) ([6]; Table S2): 1.9; MIC [6, 14]: 8 µg/mL; MIC [6, 15]: 14 µM; HC50 (erythrocytes; 10 min, room temperature): 16 ± 0.18 µg/mL; HC50 (erythrocytes; value in parentheses): 26 ± 0.3 µM; EC50 (Daphnia magna; Daphnia magna, 48 h): 0.85 µg/mL (≈ 1.53 µM); EC50 (Vibrio fischeri): 2.6 µg/mL (≈ 4.68 µM); cmc Cond [10]: 0.3 mM
dodecyl dimethyl ammonium bromide [DDAB, reference compound]	–	–	–	–	–	–	–	–	–	–	–	–	–	–	EC50 (Daphnia magna; Daphnia magna immobilization, 48 h of exposure, 95% confidence intervals in parentheses): 0.15 (0.14–0.17) μg/mL
CCCCCCCCCCCC(=O)NC(Cc1c[nH]c2ccccc12)C(=O)NC(CCCNC(=N)N)C(=O)OC (stereo not drawn) [C12TAM] (Lauroyl-Trp-Arg-OMe; configuration not given here)	32	54	16	27	16	27	16	27	8	13	16	27	–	–	γc (surface tension at the cmc) [9]: 32.1 ± 2.3 mNm^−1; cmc [9]: 0.65 mM; Selectivity Index (HC50/MIC) ([1]; Table S1): 0.7; Selectivity Index (HC50/MIC) (Candida auris ATCC 21092; Table S1): 1.4; Selectivity Index (HC50/MIC) ([2]; C. glabrata, Table S1): 1.4; Selectivity Index (HC50/MIC) ([3]; Table S1): 1.4; Selectivity Index (HC50/MIC) ([4]; Table S1): 3; Selectivity Index (HC50/MIC) ([5]; Table S1): 1.4; Selectivity Index (HC50/MIC) ([6]; Table S1): 0.7; MIC ([6]; ATCC60459): 54 µM; MIC ([6]; ATCC60459, 24 h): 32 µg/mL; reduction of the metabolic activity of the biofilm (C. albicans biofilms): less than 65%; HC50 (erythrocytes; 10 min, room temperature): 24 ± 0.8 µg/mL; HC50 (erythrocytes; value in parentheses): 40 ± 1.6 µM; cmc Cond [10]: 0.5 mM; biodegradation [11]: over 60%
O=C(O)c1cn(C2CC2)c2cc(N3CCNCC3)c(F)cc2c1=O [ciprofloxacin]	–	–	–	–	–	–	–	–	–	–	–	–	4 (≈ 12.1 µM)	> 256	–
CN(C)[C@@H]1C(O)=C(C(N)=O)C(=O)[C@@]2(O)C(O)=C3C(=O)c4c(O)cccc4[C@@](C)(O)[C@H]3C[C@@H]12 [tetracycline]	–	–	–	–	–	–	–	–	–	–	–	–	0.5 (≈ 1.13 µM)	> 256	–
